34 compounds from EP0121972A2, “N-aryl-alpha-amino-carboxamides” (JANSSEN PHARMACEUTICA N.V., priority 1983, dated 1984) can be followed below.

The test relates to multifocal ventricular arrhythmia. The test is described as follows: Antiarrhythmic effect in dogs with ventricular arrhythmia after coronary artery ligation. The class given is in vivo. To be noted: given intravenously; for minimal effective dose: Canis lupus familiaris, iv, lowest effective dose normalizing the cardial rhythm, about 16 hours after ligation of the anterior descendent branch of the left coronary artery, under neuroleptanalgesia, read-out: Antiarrhythmic effects in dogs LED in mg/kg body weight; for Antiarrhythmic effects in dogs duration: duration of action at the lowest effective dose, coronary-ligated dogs. How it is done:
The compounds of formula (I) and their pharmaceutically acceptable acid addition salts and possible stereochemically isomeric forms thereof show excellent antiarrhythmic properties and as such they are useful in the normalization of irregular cardial rhythms. The antiarrhythmic effect of the compounds of this invention is clearly illustrated in the following experiment in dogs. The test was carried out under neuroleptanalgesia (1 ml per 10 kg body weight of fentanyl (0.4 mg/ml) and droperidol (20 mg/ml)).
The test compounds were given intravenously after a control period of 30 minutes.

Structures can show the parent of a compound that is named as a salt.

For the compound `Cc1cc(N(C)C)cc(C)c1NC(=O)C1(N(C)C)CCN([C@@H]2CCCC[C@H]2O)CC1` (relative stereo) [compound 125], the minimal effective dose is 0.08 mg/kg and the “Antiarrhythmic effects in dogs duration” value is 165 min. On to `Cc1cccc(C)c1NC(=O)C1(N(C)C)CCN(CC2CC2)CC1` [compound 135], for which the minimal effective dose came to 0.16 mg/kg and the “Antiarrhythmic effects in dogs duration” value stood at 190 min. For `Cc1cccc(C)c1NC(=O)C1(N(C)C)CCN(C2CCNCC2)CC1` [compound 86, 4-(dimethylamino)-N-(2,6-dimethylphenyl)-[1,4'-bipiperidine]-4-carboxamide] the same measures were 0.16 mg/kg and 185 min. For the compound `Cc1cccc(C)c1NC(=O)C1(N(C)C)CCN(C2CCCC2)CC1` [compound 130, l-cyclopentyl-4-(dimethylamino)-N-(2,6-dimethylphenyl)-4-piperidinecarboxamide], the minimal effective dose came out at 0.16 mg/kg and the “Antiarrhythmic effects in dogs duration” value came to 65 min. Take `Cc1cccc(C)c1NC(=O)C1(N(C)C)CCN([C@@H]2CCCC[C@H]2O)CC1` (relative stereo) [compound 89, trans-4-(dimethylamino)-N-(2,6-dimethylphenyl)-1-(2-hydroxycyclohexyl)-4-piperidinecarboxamide]: the minimal effective dose was 0.04 mg/kg and the “Antiarrhythmic effects in dogs duration” value is 240 min. For `CCCN1CCC(C(=O)Nc2c(C)cccc2C)(N(C)C)CC1` [compound 136], in that order: 0.16 mg/kg and 15 min. In the case of `CCN(CC)C1(C(=O)Nc2c(C)cccc2C)CCN([C@@H]2CCCC[C@H]2O)CC1` (relative stereo) [compound 93], the minimal effective dose turned out to be 0.63 mg/kg and the “Antiarrhythmic effects in dogs duration” value is 30 min. For `COC1CNCCC1N1CCC(C(=O)Nc2c(C)cccc2C)(N(C)C)CC1` (stereo not drawn) [compound 85, cis-4-(dimethylamino)-N-(2,6-dimethylphenyl)-3'-methoxy-[l,4'-bipiperidine]-4-carboxamide] the same measures were 0.63 mg/kg and 65 min. `Cc1cccc(C)c1NC(=O)C1(N(C)C)CCNCC1` [compound 71, 4-(dimethylamino)-N-(2,6-dimethylphenyl)-4-piperidinecarboxamide]: the minimal effective dose was 1.25 mg/kg and the “Antiarrhythmic effects in dogs duration” value turned out to be 240 min. For `Cc1cccc(C)c1NC(=O)C1(N2CCOCC2)CCN([C@@H]2CCCC[C@H]2O)CC1` (relative stereo) [compound 127, trans-N-(2,6-dimethylphenyl)-l-(2-hydroxycyclohexyl)-4-(4-morpholinyl)-4-piperidinecarboxamide], in that order: 0.31 mg/kg and 55 min. For `CCN(C)C1(C(=O)Nc2c(C)cccc2C)CCNCC1` [compound 73, N-(2,6-dimethylphenyl)-4-(ethylmethylamino)-4-piperidine carboxamide] the same measures were 0.63 mg/kg and 30 min. `CO[C@@H]1CCCC[C@H]1N1CCC(C(=O)Nc2c(C)cccc2C)(N(C)C)CC1` (relative stereo) [compound 18, trans-4-(dimethylamino)-N-(2,6-dimethylphenyl)-l-(2-methoxycyclo-hexyl)-4-piperidinecarboxamide]: the minimal effective dose was 0.08 mg/kg and the “Antiarrhythmic effects in dogs duration” value turned out to be 150 min. For `CCN(CC)C1(C(=O)Nc2c(C)cccc2C)CCN(C(C)C)CC1` [compound 53, 4-(diethylamino)-N-(2,6-dimethylphenyl)-1-(1-methylethyl)-4-piperidinecarboxamide] the same measures were 0.63 mg/kg and 140 min. For `Cc1cccc(C)c1NC(=O)C1(N(C)C)CCN(CC(O)CN(Cc2ccccc2)Cc2ccccc2)CC1` (stereo not shown) [compound 96, 1-[3-[bis(phenylmethyl)amino]-2-hydroxypropyl]-4-(dimethylamino)-N-(2,6-dimethylphenyl)-4-piperidinecarboxamide], in that order: 0.31 mg/kg and 40 min.

As to `CCN(CC)C1(C(=O)Nc2cc(Cl)ccc2C)CCN(C2CCCC2)CC1` [compound 166, N-(5-chloro-2-methylphenyl)-l-cyclopentyl-4-(diethylamino)-4-piperidinecarboxamide dihydrochloride hemihydrate], the minimal effective dose came out at 0.63 mg/kg and the “Antiarrhythmic effects in dogs duration” value was found to be 200 min. `Cc1cccc(C)c1NC(=O)C1(N(C)C)CCN([C@@H]2CCNC[C@H]2O)CC1` (relative stereo) [compound 210, trans-4-(dimethylamino)-N-(2,6-dimethylphenyl)-3'-hydroxy-[1,4'-bipiperidine]-4-carboxamide]: the minimal effective dose was 0.16 mg/kg and the “Antiarrhythmic effects in dogs duration” value turned out to be 25 min. For the compound `C=CCN1CCC(C(=O)Nc2c(C)cccc2C)(N(C)C)CC1` [compound 162, 4-(dimethylamino)-N-(2,6-dimethylphenyl)-l-(2-propenyl)-4-piperidinecarboxamide], the minimal effective dose worked out at 0.31 mg/kg and the “Antiarrhythmic effects in dogs duration” value came out at 25 min. For `Cc1cccc(C)c1NC(=O)C1(N(C)C)CCN(C(C)C)CC1` [compound 132] the same measures were 0.16 mg/kg and 140 min. For `CCN(C)C1(C(=O)Nc2c(C)cccc2C)CCN(C(C)C(N)=O)CC1` (stereo not shown) [compound 174] the same measures were 1.25 mg/kg and 120 min.

On to `CCN1CCC(O)C(N2CCC(C(=O)Nc3c(C)cccc3C)(N(C)C)CC2)C1` (stereo not shown) [compound 212], for which the minimal effective dose is 0.31 mg/kg and the “Antiarrhythmic effects in dogs duration” value turned out to be 60 min. Turning to `CCN(CC)C1(C(=O)Nc2cc(Cl)ccc2C)CCN(C(C)C)CC1` [compound 143], the minimal effective dose turned out to be 0.31 mg/kg and the “Antiarrhythmic effects in dogs duration” value stood at 95 min. For `CCOC(=O)N1CCC(N2CCC(C(=O)Nc3c(C)cccc3C)(N(C)C)CC2)C(OC)C1` (stereo not shown) [compound 144], in that order: 0.16 mg/kg and 40 min. In the case of `Cc1cccc(C)c1NC(=O)C1(N)CCN(C2CCCC2)CC1` [compound 190, 4-amino-l-cyclopentyl-N-(2,6-dimethylphenyl)-4-piperidinecarboxamide], the minimal effective dose is 1.25 mg/kg and the “Antiarrhythmic effects in dogs duration” value stood at 110 min. For `CCCCN1CCC(C(=O)Nc2c(C)cccc2C)(N(C)C)CC1` [compound 137], in that order: 0.16 mg/kg and 145 min. Regarding `Cc1cccc(C)c1NC(=O)C1(N(C)C)CCN(CC(O)CN)CC1` (stereo not shown) [compound 191, 1-(3-amino-2-hydroxypropyl)-4-(dimethylamino)-N-(2,6-dimethylphenyl)-4-piperidinecarboxamide], the minimal effective dose stood at 1.25 mg/kg and the “Antiarrhythmic effects in dogs duration” value amounted to 20 min. For `CCN(CC)CCCC(C)N1CCC(C(=O)Nc2c(C)cccc2C)(N(C)C)CC1` (stereo not shown) [compound 146], in that order: 1.25 mg/kg and 45 min. Regarding `CCN1CCC(C(=O)Nc2c(C)cccc2C)(N(C)C)CC1` [compound 134], the minimal effective dose worked out at 0.63 mg/kg and the “Antiarrhythmic effects in dogs duration” value stood at 100 min. With `CCN(CC)C1(C(=O)Nc2c(C)cccc2C)CCN(C2CCCC2)CC1` [compound 54, 1-cyclopentyl-4-(diethylamino)-N-(2,6-dimethylphenyl)-4-piperidinecarboxamide], the minimal effective dose came to 0.16 mg/kg and the “Antiarrhythmic effects in dogs duration” value is 240 min. For `CCN(CC)C1(C(=O)Nc2c(C)cccc2C)CCN([C@@H]2CCC[C@H]2O)CC1` (relative stereo) [compound 92] the same measures were 0.31 mg/kg and 205 min.

Turning to `Cc1cccc(C)c1NC(=O)C1(N(C)C)CCN([C@H]2CCC[C@@H]2NCCO)CC1` (relative stereo) [compound 231, trans-4-(dimethylamino)-N-(2,6-dimethylphenyl)-l-[2-[(2-hydroxyethyl)amino]cyclopentyl]-4-piperidinecarboxamide], the minimal effective dose is 0.16 mg/kg and the “Antiarrhythmic effects in dogs duration” value was greater than 230 min.

For the compound `CCN(CC)CCN1CCC(C(=O)Nc2c(C)cccc2C)(N(C)C)CC1` [compound 163, 1-[2-(diethylamino)ethyl]-4-(dimethylamino)-N-(2,6-dimethylphenyl)-4-piperidinecarboxamide], the minimal effective dose came to 0.31 mg/kg and the “Antiarrhythmic effects in dogs duration” value turned out to be 220 min.

As for `CCN(CC)C1(C(=O)Nc2c(C)cccc2C)CCN(C2CCCCC2)CC1` [compound 141], the minimal effective dose came to 0.16 mg/kg and the “Antiarrhythmic effects in dogs duration” value amounted to 40 min. On to `CC(=O)N[C@H]1CCC[C@@H]1N1CCC(C(=O)Nc2c(C)cccc2C)(N(C)C)CC1` (relative stereo) [compound 219, trans-l-[2-(acetylamino)cyclopentyl]-4-(dimethylamino)-N-(2,6-dimethylphenyl)-4-piperidinecarboxamide], for which the minimal effective dose worked out at 0.08 mg/kg and the “Antiarrhythmic effects in dogs duration” value is 285 min. For `Cc1cccc(C)c1NC(=O)C1(N(C)C)CCN([C@@H]2CCC[C@H]2NCc2ccccc2)CC1` (relative stereo) [compound 129, trans-4-(dimethylamino)-N-(2,6-dimethylphenyl)-l-[2-[(phenylmethyl)amino]cyclopentyl]-4-piperidinecarboxamide], the minimal effective dose amounted to 0.08 mg/kg.
